From EP0443518A2, “Pharmaceutical containing episialo complex carbohydrate” (MECT CORPORATION, priority 1990, dated 1991)
“Also recorded” adds a separate entry of the source.

How the values were obtained:
[1] = system: sera derived from C57BL/6 female mice (9 weeks old) implanted with B16 melanoma cells; assay: ELISA: reactivity of serum of tumor-implanted mice with gangliosides; assay type: binding, mouse; details: for Reactivity of mouse serum: sera of mice implanted with B16 melanoma cells, 2 weeks after implantation, 100 ng ganglioside per well, absorbance at 490 nm, Fig. 2
Protocol: (§1) A serum was obtained by clotting of blood which was collected from a mouse retroorbitally (eyeground method) and removing the clotted blood by centrifugation.
(§2) ELISA assay was conducted by the conventional method.
(§3) 100 ng of each ganglioside dissolved in ethanol was added to each well of a 96-well microtiter plate and then allowed to stand at 37°C to remove ethanol completely. A blocking solution comprising a phosphate buffer solution (PBS) containing 5% of bovine serum albumin (BSA) or the like was added to the wells and the plate was incubated at 37°C for 2 hours. After the blocking solution was removed, the collected mouse serum was added to each well and the plate was incubated at 37°C for 1 hour. Each well was washed with a phosphate buffer solution containing 1% of BSA. Anti-mouse IgG, IgM and IgA antibodies which were labeled with peroxidase were added to each well and the plate was incubated at 37°C for 1 hour. Each well was washed with a phosphate buffer solution containing 1% of BSA. A substrate solution containing 400 µg/ml of o-phenylenediamine and 0.001% of hydrogen peroxide was added to each well, and the reaction was conducted at room temperature for 15 minutes. 8N sulfuric acid was added to stop the reaction and then the absorbance of the reaction mixture in each well was measured at 490 nm by using a spectrophotometer for a microtiter plate.
In Fig. 2, ●, △, ▲ and □ show the data with respect to a serum derived from a tumor the diameter of which is 5 mm or less, 6 mm, 8 mm and 16 mm, respectively.
Values shown in Fig. 1 and Fig. 2 were obtained by subtracting background values and taking the average of three wells.
Values shown in Fig. 3 were obtained by subtracting background values and taking the average of three wells.

[2] = system: normal sera derived from C57BL/6 femal mice; assay: ELISA: reactivity of normal mouse serum with gangliosides; assay type: binding; details: C57BL/6 female mice 9 weeks old, 100 ng ganglioside per well, absorbance at 490 nm, Fig. 1
Protocol: as §1, §2
as §3, with “plate. […]” for “plate.”

[3] = system: reactivity of mouse serum with epiGM₃; assay: ELISA: inhibition by acetylneuraminic acid of the reactivity of mouse serum with epiGM₃; assay type: binding; details: sodium N-acetylneuraminate solutions of various concentration added to serum of tumor-implanted mouse; Fig. 4
Protocol: as §3
Sodium N-acetylneuraminate solutions of various concentration were added to the same sera of mice as those used in the above (2). Values shown in Fig. 4 were obtained by subtracting background values and taking the average of three wells. […]

Compound | Reactivity of mouse serum [1] | Reactivity of mouse serum [2] | Inhibition of the reactivity of mouse serum with epiGM₃ [3] | reaction level / reactivity compared with sera derived from normal mice ([1]; sera of mice implanted with B16 melanoma cells versus normal sera, Fig. 2 versus Fig. 1) | reactivity (rank among GM₃, epiGM₃, GM₄, epiGM₄, GM₅ and epiGM₅) ([1]; serum of the mouse with a 6 mm tumor, diluted 200 times, Fig. 3)
CCCCCCCCCCCCCC=CC(O)C(COC1OC(CO)C(OC2OC(CO)C(O)C(OC3(C(=O)O)CC(O)C(NC(C)=O)C(C(O)C(O)CO)O3)C2O)C(O)C1O)NC(=O)CCCCCCCCCCCCCCCCCCCCCCC (stereo not shown) [GM₃, reference compound] | did not react | did not react | – | – | –
CC(=O)N[C@H]1[C@H]([C@H](O)[C@H](O)CO)OC(O)(C(=O)O)C[C@@H]1O (stereo partly shown) [N-acetylneuraminic acid] | – | – | inhibited | – | –
CCCCCCCCCCCCCC=CC(O)C(COC1OC(CO)C(OC2OC(CO)C(O)C(OC3(C(=O)O)CC(O)C(NC(C)=O)C(C(O)C(O)CO)O3)C2O)C(O)C1O)NC(=O)CCCCCCCCCCCCCCCCCCCCCCC (stereo not shown) [epiGM₃] | reacted | reacted | – | remarkably increased; also recorded: stronger | strongest
